Twelve compounds from patent US8969542B2, “HPV polyepitope constructs and uses thereof” (priority 2007, dated 2015) can be followed below.

Where two headings read alike, the source gives them in different places. Where no end group is shown, it is not given here.

For test [1], the target named is T1, DRB1*0401 (DR4w4) (Homo sapiens, UniProt P01903+P01911, A100K/A169T/F76Y/I96L/K127E/L162R/M171V/N62H/P40V/Q125Y/R42H/S133A/S149N/S66Y/V115G/V209L/W38E). The test can be described thus: biochemical.
Test [2] deals with T2, DRB4*0101 (DRw53) (Homo sapiens, UniProt P01903+P13762, G164S). Nature of the test: biochemical.
The target of test [3] is T1, DRB1*0401 (DR4w4). The settings on record: read-out: IC50 nM to purified HLA DRB1 *0401; HTL epitopes.
The target of test [4] is T2, DRB4*0101 (DRw53). The settings on record: read-out: IC50 nM to purified HLA DRB4 *0101; HTL epitopes.
Test [5] concerns the target HLA A2601 (Homo sapiens, UniProt P04439, A114D/A173T/A270S/D101N/D185E/E277Q/E87N/F33Y/G231S/I121R/I218V/K168Q/L180W/L300P/L318F/P208A/P217A/Q86R/Q94H/R138Q/S129P/T187R/T323A/T345S/V100A/V358M). The test can be described thus: HLA class I competition binding assay using soluble HLA.
Test [6] has as its target HLA A0101 (Homo sapiens, UniProt P04439, A114D/A174V/A182V/D101N/D185E/E176A/E190D/L180R/Q94H/R68K/S129P/T187R/V100A/V91M/W191G). Described as above.
In test [7] the target is HLA A3002 (Homo sapiens, UniProt P04439, D101N/D140H/D185E/E176R/F33S/G80R/H175R/K168Q/Q94H/R138E/R41S/V100E). The description is as above.
Test [8] has as its target DRB1*0101 (DR1) (Homo sapiens, UniProt P01903+P01911, A100R/D57E/F55L/F60I/F76Y/I96L/L162R/M171V/P40L/Q125E/R42F/V115G/Y59C). The test can be described thus: biochemical.
Test [9] addresses DRB1*0405 (DR4w15) (Homo sapiens, UniProt P01903+P01911, A100R/A169T/D86S/F76Y/I96L/K127E/L162R/M171V/N62H/P40V/Q125Y/R42H/S133A/S149N/S66Y/V115G/V209L/W38E). Nature of the test: biochemical.
Test [10] deals with DRB1*0901 (Homo sapiens, UniProt P01903+P01911, A100R/A103E/D57H/D86V/F55Y/F60I/F76Y/I96F/K127E/L162R/M171V/P40D/Q125H/Q99R/R33Q/R42F/S133A/S66N/T210M/V115G/W38K/Y107V/Y59G/Y89S). The test can be described thus: biochemical.
Test [11] has as its target DRB1*0701 (DR7) (Homo sapiens, UniProt P01903+P01911, A100R/A102G/A103Q/D57E/D86V/E43K/F76Y/K127E/L162R/M171V/P40G/Q125H/Q99D/R33Q/R42Y/R54Q/S133A/S66F/T210M/V115G/Y107V/Y59L/Y89S). The test can be described thus: biochemical.
The target in test [12] is DRB1*0301 (DR3) (Homo sapiens, UniProt P01903+P01911, A100K/A102G/A103R/A169T/F55Y/I96L/K41T/L162R/M171V/P40S/Q125H/Q178H/Q39Y/R42S/S66N/T106N/T262R/W38E/Y61H). The test can be described thus: biochemical.
Test [13] addresses DRB5*0101 (DR2w2beta-2) (Homo sapiens, UniProt P01903+Q30154). Nature of the test: biochemical.
The target of test [14] is DRB1*0802 (DR8w2) (Homo sapiens, UniProt P01903+P01911, A100R/A103L/A169T/F76Y/H45Y/I96F/K41T/L162R/M171V/P40S/Q125H/Q178H/Q39Y/Q99D/R218S/R42G/S66Y/V115G/W38E). The test can be described thus: biochemical.
Test [15] addresses DRB1*1501 (DR2w2beta-1) (Homo sapiens, UniProt P01903+P01911). Nature of the test: biochemical.
The target of test [16] is DRB1*1101 (DR5) (Homo sapiens, UniProt P01903+P01911, A100R/A169T/A87E/I96F/K41T/L162R/M171V/P40S/Q125H/Q178H/Q39Y/Q99D/R42S/S66Y/T262R/V115G/W38E). The test can be described thus: biochemical.
Test [17] has as its target DRB1*0404 (DR4w14) (Homo sapiens, UniProt P01903+P01911, A100R/A169T/F76Y/I96L/K127E/L162R/M171V/N62H/P40V/Q125Y/R42H/S133A/S149N/S66Y/V209L/W38E). The test can be described thus: biochemical.
Test [18] deals with DRB1*1302 (DR6w19) (Homo sapiens, UniProt P01903+P01911, A100E/A169T/K41T/L162R/M171V/P40S/Q125H/Q178H/Q39Y/Q99D/R42S/S66N/T262R/V115G/W38E/Y61H). The test can be described thus: biochemical.
In test [19] the target is HLA A2902 (Homo sapiens, UniProt P04439, A270S/D101N/D185E/E176V/E277Q/E87Q/F33T/G231S/H175R/I121M/I218V/I322F/K168Q/L300P/L318F/M331R/P208A/P217A/Q86L/T323A/T345S/V100A/V358M). Nature of the test: HLA class I competition binding assay using soluble HLA.

With `CC[C@H](C)[C@H](NC(=O)[C@H](C)NC(=O)[C@H](CCCCN)NC(=O)[C@@H](N)Cc1c[nH]cn1)C(=O)N[C@@H](CCC(=O)O)C(=O)N[C@@H](CC(C)C)C(=O)N[C@@H](CCC(N)=O)C(=O)N[C@@H](CCSC)C(=O)N[C@@H](C)C(=O)N[C@@H](CC(C)C)C(=O)N[C@@H](CCC(N)=O)C(=O)NCC(=O)N[C@@H](CC(C)C)C(=O)N[C@@H](C)C(=O)N[C@@H](CCC(N)=O)C(=O)O` [compound 101], the IC50 came to 50 nM in test [1] and 3 nM in test [2].
Turning to “LQAIELQLTLETIYN (Human papillomavirus type 16) [SEQ ID 92]”, the values for the IC50 in test [3] and in test [4] were 37 nM and 2 nM, respectively.
As to QVDYYGLYY [compound 2], the IC50 in test [5] turned out to be 251 nM; in test [6], 2.7 nM; in [7], 160 nM.
As to `CC[C@H](C)[C@H](N)C(=O)N[C@@H](CCC(=O)O)C(=O)N[C@@H](Cc1ccccc1)C(=O)N[C@H](C(=O)N[C@H](C(=O)N[C@@H](Cc1ccccc1)C(=O)N[C@@H](CC(C)C)C(=O)NCC(=O)N[C@@H](C)C(=O)N[C@@H](CC(C)C)C(=O)N[C@@H](CCCCN)C(=O)N[C@@H](CO)C(=O)N[C@@H](Cc1ccccc1)C(=O)N[C@@H](CC(C)C)C(=O)N[C@@H](CCCCN)C(=O)O)[C@@H](C)O)[C@@H](C)CC` [compound 99], the IC50 in test [8] was 30 nM; in [9] it was 3650 nM; in test [10], greater than 20000 nM; in test [11], greater than 20000 nM; in test [12], greater than 20000 nM.
Turning to WKHIRLECVLMYKAR [compound 108], the IC50 was determined as 412 nM in [13]; 476 nM in [14]; 71 nM in test [9]; 263 nM in test [1]; 11800 nM in test [10]; 16400 nM in [11]. The IC50 in test [12] turned out to be 146 nM; in test [2], 102 nM; in test [15], 134 nM; in test [16] it was 81 nM.
With WKHMRLECAIYYKAR [compound 91], the IC50 in test [8] came to 701 nM; in test [13], 280 nM; in test [14], 90 nM; in [9], 557 nM; in [1], 245 nM; in [10] it was 6340 nM. Further, the IC50 in [17] was determined as 6860 nM; in test [18], 248 nM; in test [11] it was 504 nM; in test [12], 437 nM; in [2], 766 nM; in test [15], 1390 nM. Further, in [16], the IC50 is 2400 nM.
In the case of DWVMAIFGVNPTVAEGF [compound 114], the IC50 in test [13] was determined as 387 nM; in test [14], 4270 nM; in [9] it was 92 nM; in test [10], 17900 nM; in test [17] it was 20 nM; in [12], 3750 nM. In addition, the IC50 turned out to be 571 nM in [2] and 4960 nM in test [16].
Take STDLRDHIDY [compound 3]: the IC50 in test [5] amounted to 758 nM; in test [6], 113 nM.
On to `CC[C@H](C)[C@H](NC(=O)CNC(=O)[C@H](CCC(=O)O)NC(=O)[C@H](Cc1c[nH]cn1)NC(=O)[C@@H](NC(=O)[C@H](Cc1ccc(O)cc1)NC(=O)[C@H](Cc1ccc(O)cc1)NC(=O)[C@H](CC(C)C)NC(=O)CN)C(C)C)C(=O)N[C@@H](CCCNC(=N)N)C(=O)N[C@H](C(=O)N[C@@H](Cc1ccc(O)cc1)C(=O)N[C@@H](Cc1ccccc1)C(=O)N[C@H](C(=O)N[C@@H](CCC(N)=O)C(=O)O)C(C)C)[C@@H](C)O` [compound 93], for which the IC50 was 1000 nM in test [13], greater than 20000 nM in [17], greater than 20000 nM in test [18] and greater than 20000 nM in [2].
As to `C[C@@H](O)[C@H](NC(=O)CN)C(=O)NCC(=O)N[C@@H](CS)C(=O)N[C@@H](CC(N)=O)C(=O)NCC(=O)N[C@@H](Cc1c[nH]c2ccccc12)C(=O)N[C@@H](Cc1ccccc1)C(=O)N[C@@H](Cc1ccc(O)cc1)C(=O)O` [compound 23], the IC50 in test [5] worked out at 3080 nM; in [6], 136 nM; in [19], 116 nM; in [7], 9.1 nM.
Consider NGWFYVEAVIDRQTG [compound 106], for which the IC50 in test [8] is 1860 nM; in test [13] it was 1200 nM; in [9], 178 nM; in test [1], 845 nM; in test [10], 3670 nM; in test [11], 1460 nM. In addition, the IC50 in [12] was 2800 nM.
Take `CC[C@H](C)[C@H](N)C(=O)N[C@@H](CCCNC(=N)N)C(=O)N[C@H](C(=O)N[C@@H](CC(C)C)C(=O)N[C@@H](CCC(N)=O)C(=O)N[C@@H](CCC(=O)O)C(=O)N[C@@H](CC(C)C)C(=O)N[C@@H](CC(C)C)C(=O)N[C@@H](CCSC)C(=O)NCC(=O)N[C@@H](CO)C(=O)N[C@@H](Cc1ccccc1)C(=O)NCC(=O)N[C@H](C(=O)N[C@H](C(=O)O)C(C)C)[C@@H](C)CC)[C@@H](C)CC` [compound 112]: in [8], the IC50 was 50 nM.

For orientation: IC50 means the concentration that inhibits the measured activity by half.
